In US20240327462A1, “SHORT PEPTIDES, PHARMACEUTICAL COMPOSITIONS COMPRISING THE SAME, AND USES THEREOF IN TREATING NEUROLOGICAL DISEASES” (FU JEN CATHOLIC UNIVERSITY, priority 2023, published 2024):

Assays:
[1] = system: Tg(mnxl:GFP) zebrafish embryos; test: Axonal branching of motor neurons in Tg(mnxl:GFP) zebrafish embryos; assay type: in vivo; conditions: microinjected into brain chamber at 20 hpf, examined at 30 hpf; compared to untreated and 16-a.a.-injected control groups
Description: The branched primary motor neurons (PMN) derived from caudal primary (CaP) motoneurons located at somites from 11th to 20th of Tg(mnxl:GFP) zebrafish embryos at 30 hours post fertilization (hpf) was examined. The untreated embryos served as control group, the embryos injected with an arbitrary non-functional 16 a.a. served as mock control group, while experimental groups were embryos injected with FD1, FD2, FD3 or FD4. […] Each data was averaged from three independent experiments.
The PBS and present peptides (i.e., FD1, FD2, FD3 and FD4) were respectively microinjected into the brain chamber of Tg (mnxl:GFP) embryos at 20 hpf. After 10 hours, the control embryos, mock control embryos and experimental embryos were monitored by anatomic microscope equipped with fluorescence system and digital camera.

[2] = system: ALS SOD1G93A mice; test: Survival of ALS SOD1G93A mice; assay type: in vivo, mouse; conditions: 250 ug (about 10 mg/Kg) i.v. weekly from day 60; for cumulated survival rate compared to PBS-injected control mice: 5 mice per group vs 7 PBS controls; for average survival days: 5 mice per group, PBS control 130.0
Description: (§1) Transgenic mice of the congenic strain ALS SOD1^G93A carrying human SOD1 with the pathogenic G93A mutation (a mouse model of ALS that developed stereotyped phenotypes resembling the symptoms in ALS patients) were purchased from The Jackson Laboratory (JAX). The present peptide (i.e., FD1, FD2, FD3 or FD4) was initiated to inject intravenously in an amount of 250 ug (about 10 mg/Kg) into 60-day-old ALS SOD1^G93A mice. Injection was performed weekly. Injection of PBS served as a control group. The treated mice were monitored daily and analyzed via video tracking software.
The initial total number of ALS mice in each group (7 and 5 samples for control and FD-treated groups, respectively) was set as a 100% survival rate. During experimental period, once the ALS mouse was dead, the number and its survival days were recorded, and the cumulative survival rate was counted. When all ALS mice within the experimental group were dead, the cumulative survival rate was considered as 0%. In case that either the weight loss of a mouse was greater than 20% of original or a mouse that was not capable to eat and drink normally, euthanasia was performed and considered it as a non-survival sample. The survival days for each group were averaged from seven samples for PBS-injected control group and five samples for FD-injected experimental groups.

[3] = system: ALS SOD1G93A mice; test: Moving capability of ALS model mice (SOD1 G93A); assay type: in vivo, mouse; conditions: 250 ug (about 10 mg/Kg) i.v. weekly from day 60; measured at 124 days after birth; vs PBS-injected control ALS mice
Description: as §1
The moving capability of ALS model mice (SOD1 G93A) injected with PBS or the present peptide (i.e., FD1, FD2, FD3 or FD4) was determined via measuring the moving trajectory of each treated mouse at 124 days after birth.

[4] = system: phosphorylated cofilin (p-cofilin); test: Western blot of phosphorylated cofilin (p-cofilin) in treated NSC34 cells; assay type: cell-based, mouse; conditions: NSC34 cells in NogoA-overexpressed Sol8 CM with peptide, compared to PBS control normalized as 1
Description: (§2) NSC34 cells (mouse Neuroblastoma x Spinal Cord-34 cell line) (RRID:CVCL_D356) were cultured in DMEM medium containing 10% FBS, 100 units/ml penicillin and 1% streptomycin. To investigate the effect of the present peptides (including FD1, FD2, FD3 and FD4) on neurons, NSC34 cells were cultivated in differentiation medium (DMEM medium containing 2.5% FBS, 100 units/ml penicillin and 1% streptomycin) for 24 hours, and then continued cultivating in CM obtained from culturing Sol8-NogoA cells (Sol8-NogoA CM) with or without addition of the present peptide (i.e., FD1, FD2, FD3 or FD4) in an amount of 66 ng/ml. The CM with or without containing the present peptide was refreshed daily. Cells were fixed with paraformaldehyde (PFA) for 48 hours, followed by measuring the length of neurite outgrowth using software based the neurites shown on microscopic image. Each data was averaged from three independent experiments and the length presented in each time was averaged from more than 100 counting cells. The effect of the present peptide on improving neurite outgrowth was determined by comparing the neurite length of NSC34 cells treated with the present peptide in Sol8-NogoA CM with that of NSC34 cells treated with phosphate buffered saline (PBS; serving as a control group) in Sol8-NogoA CM.
The total proteins extracted from treated NSC34 cells were analyzed by sodium dodecyl-sulfate polyacrylamide gel electrophoresis (SDS-PAGE) on a 12% polyacrylamide gel. After electrophoresis, western blotting was performed. The protein levels of phosphorylated cofilin (p-cofilin) and alpha-tubulin contained in NSC34 cells cultured in medium with addition of either PBS (served as control) or the present peptide (i.e., FD1, FD2, FD3 or FD4) were determined using antibodies specifically against p-cofilin and alpha-tubulin, respectively. The intensity shown on the blot was quantified by software. Each data was averaged from three independent experiments. The relative intensity among groups was based on the comparison with that of control group set as 1.

[5] = system: NSC34 cells; test: Neurite outgrowth of NSC34 cells cultured in Sol8-NogoA conditioned medium; assay type: cell-based, mouse; conditions: Sol8-NogoA CM with peptide 66 ng/ml, 48 hours; PBS in Sol8-NogoA CM 53.6 μm, PBS in Sol8 CM 99.4 μm
Description: . After 24-48 hours, the supernatant containing viral particles was collected and centrifuged at a speed of 1,250 rpm, followed by adding to Sol8 cells (ATCC, CRL-2174) pretreated with 8 μg/ml POLYBRENE®. 24 hour later, the fresh DMEM medium containing 10% fetal bovine serum (FBS), 100 units/ml penicillin, 1% streptomycin and 4 ug/ml puromycin was added to the Sol8 cells so as to obtain NogoA-overexpressed Sol8 cells.
The wild-type Sol8 cells and NogoA-overexpressed Sol8 cells (Sol8-NogoA cells) were respectively cultured and differentiated in DMEM medium containing 10% FBS, 100 units/ml penicillin and 1% streptomycin. Two days later, 1 μg/μl of doxycycline was added to the medium so as to induce the expression of target genes. The culture medium was collected and the fresh medium containing doxycycline was added to the Sol8-NogoA cells every 24 hours. The collected culture medium was then centrifuged at a speed of 3,000 rpm for 5 minutes at room temperature, and the supernatant was harvested therefrom served as CM for the following assays.
as §2

[6] = system: ALS SOD1G93A mice; test: Denervation of neuromuscular junction (NMJ) in ALS SOD1G93A mice; assay type: in vivo; conditions: 250 ug (about 10 mg/Kg) i.v. weekly from day 60; gastrocnemius muscle of 75-day-old mice; vs PBS-injected mouse
Description: as §1
To study the denervation of NMJ, the gastrocnemius muscles were extracted from 75-day-old ALS SOD1^G93A mice received with either PBS (control) or the present peptide (FD1, FD2, FD3 or FD4) and analyzed by immunostaining. In brief, the gastrocnemius muscles fixed with paraformaldehyde (PFA) were mounted on glass slides and treated with 2% TRITON™ for one hour. After blocking with PBS containing 5% bovine serum albumin (BSA) for 2 hours, the antibody against either synaptic vesicle protein (synapsin) or alpha-Bungarotoxin (α-BTX) was added to the slides, followed by incubating at 4° C. for 16 hours. The slides were washed with PBS containing 2% TRITON™ for three times, and then Cy2-conjugated anti-rabbit antibody and ALEXA FUOR™ 647-conjugated anti-mouse antibody were respectively added to the slides, followed by incubating at 4° C. for 16 hours. The slides were washed with PBS containing 2% TRITON™ for three times. The axon terminal of motoneurons via synapsin labeled by green fluorescent signal, while detected the acetylcholine receptor on motor endplates via α-BTX labeled by red fluorescent signal. […]. The percentage of yellow signal (green signal overlapped with red signal) among total red signal shown on the 600× magnified image area (400×400 pixels) of muscle sample from PBS- and peptide-injected SOD1-G93A ALS mouse was calculated using software. Each experiment was calculated from 13-15 images.

Row | Sequence | percentage of zebrafish embryos exhibiting branched motor neurons [1] | cumulated survival rate compared to PBS-injected control mice [2] | average survival days [2] | moving distance [3] | p-cofilin protein level [4] | neurite length of NSC34 cells [5] | percentage of co-localized synapsin-1 and α-BTX (NMJ integrity) [6]
1 | WEAFARGTRALMDEVV [FD3, mutant of FD1, lysine at position 9 substituted with arginine] | significantly increased | not shown difference | 130.8 days | significantly improved | significantly reduced | 88.2 μm | significantly higher
2 | WEAFARGTKALMDEVV [FD1, short peptide derived from human PGK1, 16 a.a] | significantly increased | longer survival time | 140.0 days | significantly improved | significantly reduced | 89.2 μm | significantly higher
3 | WEAFARGTKPLMDEVV [FD2, mutant of FD1, alanine at position 10 substituted with proline] | significantly increased | longer survival time | 147.0 days | significantly improved | significantly reduced | 66.6 μm | significantly higher
4 | WEAFARGTKALMRQVV [FD4, mutant of FD1, D13 substituted with R and E14 with Q] | significantly increased | longer survival time | 139.0 days | significantly improved | significantly reduced | 95.8 μm | significantly higher
